molecular target: phosphorylated active hERK2 enzyme (Homo sapiens (Human), UniProt P28482); settings: not given
Sequence (P28482 whole entry): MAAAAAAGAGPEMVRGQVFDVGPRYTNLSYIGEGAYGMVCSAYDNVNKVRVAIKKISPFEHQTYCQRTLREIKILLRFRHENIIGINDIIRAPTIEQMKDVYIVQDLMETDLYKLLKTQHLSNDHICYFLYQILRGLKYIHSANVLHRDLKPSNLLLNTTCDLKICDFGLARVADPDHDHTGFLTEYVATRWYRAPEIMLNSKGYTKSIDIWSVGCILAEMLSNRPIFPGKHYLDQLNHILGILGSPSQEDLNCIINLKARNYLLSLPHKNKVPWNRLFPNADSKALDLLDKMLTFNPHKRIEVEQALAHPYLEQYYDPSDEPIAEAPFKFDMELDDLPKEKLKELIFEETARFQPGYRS

Row | IC50 | SMILES
1 | 42.3 nM | Cc1cc(-n2ncc3cc(NC(=O)N[C@H]4CCC[C@H]4c4ccc(F)cc4)ncc32)ccn1 (racemic) [Example 153, Racemic cis 1-[(1S,2S) and (1R,2R)-2-(4-fluorophenyl)cyclopentyl]-3-[1-(2-methylpyridin-4-yl)-1H-pyrazolo[3,4-c]pyridin-5-yl]urea]

same assay, conditions: read-out: ERK2 IC50; IMAP-FP assay; 0.5 nM hERK2, 30 μM ATP; 10 point titration, 3 μM starting concentration

Row | IC50 | SMILES
2 | 4.05 nM | Cc1cc(-n2ncc3cc(NC(=O)NCc4ccc(F)c(Cl)c4)ncc32)ccn1 [Example 214, 1-(3-chloro-4-fluorobenzyl)-3-[1-(2-methylpyridin-4-yl)-1H-pyrazolo[3,4-c]pyridin-5-yl]urea]
3 | 196 nM | COC[C@@H](NC(=O)Nc1cc2cnn(C3CCOCC3)c2cn1)c1ccccc1 [Example 259, (S)-1-(2-methoxy-1-phenylethyl)-3-(1-(tetrahydro-2H-pyran-4-yl)-1H-pyrazolo[3,4-c]pyridin-5-yl)urea]
4 | 36.9 nM | Cn1ncc2cc(NC(=O)N[C@@H](c3ccccc3)C(C)(C)O)ncc21 [Example 228, 1-[(1S)-2-hydroxy-2-methyl-1-phenylpropyl]-3-(1-methyl-1H-pyrazolo[3,4-c]pyridin-5-yl)urea]
5 | 23.4 nM | Cc1cc(-n2ncc3cc(NC(=O)NC[C@@H]4CCNC4)ncc32)ccn1 [Example 286, 1-[1-(2-methylpyridin-4-yl)-1H-pyrazolo[3,4-c]pyridin-5-yl]-3-[(3R)-pyrrolidin-3-ylmethyl]urea]
6 | 110 nM | C[C@@H](NC(=O)Nc1cc2cnn(CCC#N)c2c(CO)n1)c1ccccc1 [Example 323, 1-[1-(2-Cyanoethyl)-7-(hydroxymethyl)-1H-pyrazolo[3,4-c]pyridin-5-yl]-3-[(R)-1-phenylethyl]urea]
7 | 354 nM | Cc1cc(-n2ncc3cc(NC(=O)N[C@@H]4CN(C5CCC5)C[C@H]4c4ccccc4)ncc32)ccn1 [Example 196, 1-[(3S,4R)-1-cyclobutyl-4-phenylpyrrolidin-3-yl]-3-[1-(2-methylpyridin-4-yl)-1H-pyrazolo[3,4-c]pyridin-5-yl]urea]
8 | 178 nM | CC(C)Cn1ncc2cc(NC(=O)N[C@H](C)c3ccccc3)nc(CO)c21 [Example 306, 1-[7-(hydroxymethyl)-1-(2-methylpropyl)-1H-pyrazolo[3,4-c]pyridin-5-yl]-3-[(1R)-1-phenylethyl]urea]
9 | 24.5 nM | COC[C@H](NC(=O)Nc1cc2cnn(-c3ccnc(C)c3)c2cn1)c1ccccn1 [Example 209, 1-[(1R)-2-methoxy-1-pyridin-2-ylethyl]-3-[1-(2-methylpyridin-4-yl)-1H-pyrazolo[3,4-c]pyridin-5-yl]urea]
10 | 79.5 nM | C[C@@H](NC(=O)Nc1cc2cnn(CC3CC3)c2c(CO)n1)c1ccccc1 [Example 308, 1-[1-(cyclopropylmethyl)-7-(hydroxymethyl)-1H-pyrazolo[3,4-c]pyridin-5-yl]-3-[(1R)-1-phenylethyl]urea]
11 | 920 nM | C[C@@H](NC(=O)Nc1cc2cnn(C)c2cn1)c1ccccc1 [Example 225, (R)-1-(1-methyl-1H-pyrazolo[3,4-c]pyridin-5-yl)-3-(1-phenylethyl)urea]
12 | 25 nM | Cc1cc(-n2ncc3cc(NC(=O)N[C@H](C)c4ccccc4)nc(COC4COC4)c32)ccn1 [Example 250, 1-{1-(2-methylpyridin-4-yl)-7-[(oxetan-3-yloxy)methyl]-1H-pyrazolo[3,4-c]pyridin-5-yl}-3-[(1R)-1-phenylethyl]urea]
13 | 832 nM | Cc1cc(-n2ncc3cc(NC(=O)N[C@H](C)c4ccccc4)nc(CN4CCOCC4)c32)ccn1 [Example 245, 1-[1-(2-methylpyridin-4-yl)-7-(morpholin-4-ylmethyl)-1H-pyrazolo[3,4-c]pyridin-5-yl]-3-[(1R)-1-phenylethyl]urea]
14 | 141 nM | COCCNCc1nc(NC(=O)N[C@H](C)c2ccccc2)cc2cnn(-c3ccc(F)cc3)c12 [Example 318, 1-[1-(4-Fluorophenyl)-7-{[(2-methoxyethyl)amino]methyl}-1H-pyrazolo[3,4-c]pyridin-5-yl]-3-[(1R)-1-phenylethyl]urea]
15 | 160 nM | C[C@@H](NC(=O)Nc1cc2cnn(CCO)c2c(CO)n1)c1ccccc1 [Example 310, 1-[1-(2-hydroxyethyl)-7-(hydroxymethyl)-1H-pyrazolo[3,4-c]pyridin-5-yl]-3-[(1R)-1-phenylethyl]urea]
16 | 115 nM | Cc1cc(-n2ncc3cc(NC(=O)NC4CCCN(Cc5cccnc5)C4)ncc32)ccn1 (stereo not shown) [Example 265]
17 | 36.6 nM | Cc1cc(-n2ncc3cc(NC(=O)NC[C@H]4CCN(C)C4)ncc32)ccn1 [Example 289, 1-[1-(2-methylpyridin-4-yl)-1H-pyrazolo[3,4-c]pyridin-5-yl]-3-{[(3R)-1-methylpyrrolidin-3-yl]methyl}urea]
18 | 64.1 nM | CCNC(=O)n1ncc2cc(NC(=O)N[C@H](C)c3ccccc3)ncc21 [Example 231, N-ethyl-5-({[(1R)-1-phenylethyl]carbamoyl}amino)-1H-pyrazolo[3,4-c]pyridine-1-carboxamide]

More lines, now with the values behind:

Row | SMILES | IC50
19 | Cc1cc(-n2ncc3cc(NC(=O)N[C@H]4CN(C)C[C@@H]4Oc4ccccc4)ncc32)ccn1 [Example 158, 1-[(3S,4S)-1-methyl-4-phenoxypyrrolidin-3-yl]-3-[1-(2-methylpyridin-4-yl)-1H-pyrazolo[3,4-c]pyridin-5-yl]urea] | 20.5 nM
20 | Cc1cc(-n2ncc3cc(NC(=O)NCCOc4ccccc4F)ncc32)ccn1 [Example 87, 1-[2-(2-fluorophenoxy)ethyl]-3-[1-(2-methylpyridin-4-yl)-1H-pyrazolo[3,4-c]pyridin-5-yl)urea] | 6.38 nM
21 | CO[C@H]1CCC[C@@H]1NC(=O)Nc1cc2cnn(-c3ccnc(C)c3)c2cn1 [Example 140, 1-[(1S,2S)-2-methoxycyclopentyl]-3-[1-(2-methylpyridin-4-yl)-1H-pyrazolo[3,4-c]pyridin-5-yl)urea] | 72.1 nM
22 | Cc1cc(-n2ncc3cc(NC(=O)NCC(c4ccccc4)N4CCCCC4)ncc32)ccn1 (stereo not shown) [Example 50, 1-[1-(2-methylpyridin-4-yl)-1H-pyrazolo[3,4-c]pyridin-5-yl]-3-(2-phenyl-2-piperidin-1-ylethyl)urea] | 198 nM
23 | Cc1cc(-n2ncc3cc(NC(=O)N[C@H](CCO)c4ccccc4)ncc32)ccn1 [Example 89, 1-[(1R)-3-hydroxy-1-phenylpropyl]-3-[1-(2-methylpyridin-4-yl)-1H-pyrazolo[3,4-c]pyridin-5-yl)urea] | 0.821 nM
24 | Cc1cc(-n2ncc3cc(NC(=O)N[C@H]4CN(C)C[C@@H]4c4ccccc4C)ncc32)ccn1 (single isomer, unassigned) [Example 36, 1-[(3R,4S) or (3S, 4R)-1-methyl-4-(2-methylphenyl)pyrrolidin-3-yl]-3-[1-(2-methylpyridin-4-yl)-1H-pyrazolo[3,4-c]pyridin-5-yl)urea] | 0.83 nM
25 | Cc1cc(-n2ncc3cc(NC(=O)N[C@@H]4CCN(c5ccc(F)cc5)C4)ncc32)ccn1 [Example 34, 1-[(3R)-1-(4-fluorophenyl)pyrrolidin-3-yl]-3-[1-(2-methylpyridin-4-yl)-1H-pyrazolo[3,4-c]pyridin-5-yl]urea] | 762 nM
26 | Cc1cc(-n2ncc3cc(NC(=O)NCC(c4ccccn4)N4CCOCC4)ncc32)ccn1 (stereo not shown) [Example 73, 1-[1-(2-methylpyridin-4-yl)-1H-pyrazolo[3,4-c]pyridin-5-yl]-3-(2-morpholin-4-yl-2-pyridin-2-ylethyl)urea] | 243 nM
27 | Cc1cc(-n2ncc3cc(NC(=O)NCC(F)(F)c4ccccc4)ncc32)ccn1 [Example 61, 1-(2,2-difluoro-2-phenylethyl)-3-[1-(2-methylpyridin-4-yl)-1H-pyrazolo[3,4-c]pyridin-5-yl]urea] | 193 nM
28 | CCNC(=O)[C@@H](NC(=O)Nc1cc2cnn(-c3ccnc(C)c3)c2cn1)c1ccccc1 [Example 141, (2S)-N-ethyl-2-({[1-(2-methylpyridin-4-yl)-1H-pyrazolo[3,4-c]pyridin-5-yl]carbamoyl}amino)-2-phenylethanamide] | 2.58 nM
29 | COc1ccc(CNC(=O)Nc2cc3cnn(-c4ccncc4)c3cn2)cc1 [Example 9, 1-(4-methoxybenzyl)-3-(1-pyridin-4-yl-1H-pyrazolo[3,4-c]pyridin-5-yl)urea] | 5.3 nM
30 | Cc1cc(-n2ncc3cc(NC(=O)N[C@@H]4CN(C)C[C@H]4c4cccnc4)ncc32)ccn1 [Example 112, 1-[1-(2-methylpyridin-4-yl)-1H-pyrazolo[3,4-c]pyridin-5-yl]-3-[(3S,4R)-1-methyl-4-pyridin-3-ylpyrrolidin-3-yl)urea] | 48.7 nM
31 | Cc1cc(-n2ncc3cc(NC(=O)NCCF)ncc32)ccn1 [Example 110, 1-(2-fluoroethyl)-3-[1-(2-methylpyridin-4-yl)-1H-pyrazolo[3,4-c]pyridin-5-yl]urea] | 106 nM
32 | Cc1cc(-n2ncc3cc(NC(=O)NC(CCN4CCCCC4)c4ccccc4)ncc32)ccn1 (stereo not shown) [Example 53, 1-[1-(2-methylpyridin-4-yl)-1H-pyrazolo[3,4-c]pyridin-5-yl]-3-(1-phenyl-3-piperidin-1-ylpropyl)urea] | 49.2 nM
33 | C[C@@H](NC(=O)Nc1cc2cnn(-c3cnn(C)c3)c2cn1)c1ccc(F)cc1 [Example 5, 1-[(1R)-1-(4-fluorophenyl)ethyl]-3-[1-(1-methyl-1H-pyrazol-4-yl)-1H-pyrazolo[3,4-c]pyridin-5-yl)urea] | 12.2 nM
34 | Cc1cc(-n2ncc3cc(NC(=O)N[C@H](CO)c4ccccc4)ncc32)ccn1 [Example 65, 1-[(1S)-2-hydroxy-1-phenylethyl]-3-[1-(2-methylpyridin-4-yl)-1H-pyrazolo[3,4-c]pyridin-5-yl]urea] | 1.02 nM
35 | Cc1cc(-n2ncc3cc(NC(=O)NCCC(F)(F)F)ncc32)ccn1 [Example 88, 1-[1-(2-methylpyridin-4-yl)-1H-pyrazolo[3,4-c]pyridin-5-yl]-3-(3,3,3-trifluoropropyl)urea] | 46.3 nM
36 | Cc1cc(-n2ncc3cc(NC(=O)NCC4(N(C)C)CCCCC4)ncc32)ccn1 [Example 100, 1-{[1-(dimethylamino)cyclohexyl]methyl}-3-[1-(2-methylpyridin-4-yl)-1H-pyrazolo[3,4-c]pyridin-5-yl)urea] | 1210 nM
37 | Cc1cc(-n2ncc3cc(NC(=O)NCCOCc4ccccc4)ncc32)ccn1 [Example 95, 1-[2-(benzyloxy)ethyl]-3-[1-(2-methylpyridin-4-yl)-1H-pyrazolo[3,4-c]pyridin-5-yl]urea] | 5.4 nM

Source: patent US9884048B2, “ERK inhibitors” (Merck Sharp & Dohme Corp., priority 2014, dated 2018)
